Values joined by “and” are separate entries in the source; they are usually repeats but may differ in a detail not shown here. Equal values may be shown once. “Also recorded” adds a separate entry of the source.
Key:
[1] = Example 9: questionnaire total score of ten hangover symptoms with and without ALAs ingestion, fifteen test subjects; assay type: in vivo, human; conditions: for Total score After alcohol consumption (same day) / Total score Morning after alcohol consumption: ALAs ingested (10-150 mg total, differs per subject), sum of ten hangover symptom items each scored 0-4, one line per test subject 1-15
Method: The following tests were performed to more quantitatively measure that ALAs are effective for the prevention or therapy of a hangover.
In this experiment, aminolevulinic acid phosphate salt was employed as ALAs.
Each test subject, consumed alcohol in the evening for a total of two times in order to evaluate hangover symptoms in regards to each of (1) when ALAs was ingested and (2) when ALAs was not ingested. In the experiment with ALAs ingestion and the experiment without ALAs ingestion, the order for which of the experiments was performed first and the other of the experiments was performed, later was randomly selected for each test subject. Each experiment was performed with at least a few days apart.
Total amount of alcohol consumption varies by test subject. This is because a moderate amount for each test subject was consumed. Moreover, alcohol consumption was made so that the total amount of the second alcohol consumption was the same as the total amount of the first alcohol consumption (note that as exceptions, (1) the total amount of alcohol consumption when ALAs was ingested and (2) the total amount of alcohol consumption when ALAs was not ingested are not the same for test subjects 1, 2, and 12 in Table 5 below). In Table 5 below, the “total amount of alcohol consumption” indicates a value converted into the total amount of alcohol contained in beer or Japanese sake etc. consumed (in other words, in the case of a 500 ml canned beer, if the alcohol percentage is 5%, it is calculated as […]).
Moreover, for each test subject, the timing of ALAs ingestion (1) when ALAs was ingested was “at the start of alcohol consumption” and/or “after the end of alcohol consumption” as shown in Table 5 below. The ingestion of ALAs (aminolevulinic acid phosphate salt) was performed by selecting at least one from below:
(A) the capsule of Example 1 (contains 50 mg of ALAs),
(B) the capsule of Example 3 (contains 10 mg of ALAs),
(C) “Hanamitsu Drink™” (contains 5 or 10 mg of ALAs, a product generally marketed by the present applicants) for each test subject, ingested in the range of 10 mg-150 mg total.
(A) The body condition “after alcohol consumption on the day of alcohol consumption” (“after alcohol consumption (same day)” in Table 5) and (B) the body condition on “the morning after the day of alcohol consumption” (“morning after alcohol consumption” in Table 5) were quantified with the following scores. In other words, a five-step evaluation (0: no indication, 1: mild, 2: moderate, 3: severe, and 4: profound) was performed for each test subject in regards to the following ten items (a-j) which are hangover symptoms. Then, evaluation values (0-4) for each item were summed for each test subject. The results are described in Table 5 as the “total score” showing hangover symptoms.

[2] = Example 8: case of hangover therapy, test subject A, capsule of aminolevulinic acid; assay type: in vivo, human; conditions: terrible hangover, one capsule comprising 100 mg
Method: Test subject A who consumed Japanese sake similarly to Example 7 without ingesting any capsules developed a terrible hangover condition. Test subject A ingested one capsule comprising 100 mg of aminolevulinic acid. As a result, symptoms started to recover after 30 minutes had passed since administration, and they had completely recovered after 1.5 hours.

[3] = phosphate salt, 10 mg ALAs with 60 mL alcohol
[4] = phosphate salt, 20 mg ALAs with 70 mL alcohol
[5] = phosphate salt, 50 mg ALAs with 14 mL alcohol
[6] = phosphate salt, 50 mg ALAs with 25 mL alcohol
[7] = phosphate salt, 50 mg ALAs with 45 mL alcohol
[8] = phosphate salt, 50 mg ALAs with 79 mL alcohol
[9] = phosphate salt, 50 mg ALAs with 108 mL alcohol
[10] = phosphate salt, 100 mg ALAs with 50 mL alcohol
[11] = phosphate salt, 100 mg ALAs with 75 mL alcohol
[12] = phosphate salt, 100 mg ALAs with 190 mL alcohol
[13] = phosphate salt, 150 mg ALAs with 129 mL alcohol

## aminolevulinic acid phosphate salt [ALAs]
[1]; [3]
  Total score After alcohol consumption (same day): 9
  Total score Morning after alcohol consumption: 2
[1]; [4]
  Total score After alcohol consumption (same day): 1
  Total score Morning after alcohol consumption: 1
[1]; [5]
  Total score After alcohol consumption (same day): 0
  Total score Morning after alcohol consumption: 0
[1]; [6]
  Total score After alcohol consumption (same day): 0 (2×) and 3
  Total score Morning after alcohol consumption: 0 (2×) and 3
[1]; [7]
  Total score After alcohol consumption (same day): 0
  Total score Morning after alcohol consumption: 0
[1]; [8]
  Total score After alcohol consumption (same day): 0
  Total score Morning after alcohol consumption: 0
[1]; [9]
  Total score After alcohol consumption (same day): 0
  Total score Morning after alcohol consumption: 0
[1]; [10]
  Total score After alcohol consumption (same day): 1
  Total score Morning after alcohol consumption: 1
[1]; [11]
  Total score After alcohol consumption (same day): 0
  Total score Morning after alcohol consumption: 1 and 0 and 2
[1]; [12]
  Total score After alcohol consumption (same day): 9
  Total score Morning after alcohol consumption: 7
[1]; [13]
  Total score After alcohol consumption (same day): 0
  Total score Morning after alcohol consumption: 1
[1]; ALAs ingested at the start of alcohol consumption, test subjects 1 and 2
  amount of alcohol consumption possible: Alcohol consumption at an amount more than usual was possible
[1]; subgroups of test subjects, phosphate salt
  hangover symptoms with ALAs ingestion compared to without, conclusions from Table 5: hangover symptoms were surprisingly mostly reduced; also recorded: Hangover symptoms were generally improved and a prophylactic effect of hangovers was seen; also recorded: no hangover symptoms manifested

## NCC(=O)CCC(=O)O [aminolevulinic acid, 5-aminolevulinic acid]
[2]
  time after administration until hangover symptoms started to recover: 30 min
  time until complete recovery from hangover: 1.5 h

— patent publication US10022345B2, “Agent for preventing and/or treating veisalgia” (SBI Pharmaceuticals Co., Ltd., priority 2011, dated 2018)
